One data set addresses Na+, K+-ATPase (Canis lupus familiaris, UniProt P50997). The data set can be described thus: biochemical. The arrangement: species or system dog. The following applies: read-out: Na+, K+-ATPase Inhibition IC50.
Data set [1] has as its system hypertensive ouabain-sensitive rats (os rats). The data set can be described thus: Systolic blood pressure fall in hypertensive ouabain-sensitive rats (OS rats). The data set is classed as in vivo, rat. The following applies: 10 μg/kg/day by mouth for four weeks; for HR / SBP: measured 6 hours after the treatment; for SBP: tail-cuff. The procedure:
The ability of these compounds to lower blood pressure was tested by using an animal model with induced hypertension, in particular, rats made hypertensive by chronic infusion of ouabain, according to Ferrari P., et al. J. Pharm. Exp. Ther. 1998, 285, 83-94.
The procedure adopted to test the antihypertensive activity of the compounds on the above mentioned model was the following: systolic blood pressure (SBP) and heart rate (HR) were measured by an indirect tail-cuff method. The blood pressure lowering effect was measured in hypertensive ouabain-sensitive rats. The compound, suspended in Methocel 0.5% (w/v), was administered daily at the dose of 10 μg/kg/day by mouth for four weeks. SBP and HR were measured weekly 6 hours after the treatment. The comparison are ouabain sensitive rats (OS rats) and non hypertensive rats (control), both treated only with Methocel 0.5% (w/v). As shown in the following Table 4, treatment with a compound of the present invention lowers the blood pressure of OS rats (170 mm Hg) to almost the level of control rats (150 mm Hg).

A further data set deals with fresh rat hepatocytes. The data set can be described thus: Metabolism in fresh rat hepatocytes. The following applies: fresh rat hepatocytes; test item nominal concentration 45 μM.
In the next data set the test system is anesthetized guinea-pig. The data set can be described thus: Inotropic effect and lethal dose, slow intravenous infusion (over 90 minutes) in anesthetized guinea-pig. The settings on record: for Lethal dose/ED80 (safety ratio): calculated in the died animals; for Maximum dose infused: maximum dose infused in the survived animals.
Where [2] appears, read: slow i.v. infusion over 90 minutes.

Data on four compounds can be found in patent US8609644B2, “Amino derivatives of androstanes and androstenes as medicaments for cardiovascular disorders” (priority 2006, dated 2013).

Structures can show the parent of a compound that is named as a salt. Where two headings read alike, the source gives them in different places.

With `CON=C1CC2CC(=NOCCN)CCC2(C)C2CCC3(C)C(=O)CCC3C12` (mixture of isomers) [I-bt, (E,Z)-3-(2-Aminoethoxyimino)-7-(E)-methoxyiminoandrostan-17-one fumarate], the IC50 at Na+, K+-ATPase (dog kidney enzyme) amounted to 12 µM. In addition, in data set [1], the HR % beats/min is 0%, the “SBP - % (fall vs OS rats)” value came out at 8.3%, the “SBP - mm Hg (fall vs OS rats)” value is listed as 14.2 mm Hg and the HR was found to be 368 beats/min. In data set [1], this compound gave an SBP of 155.8 mm Hg.
In the case of `CC12CCC3C(C(O)C(CO)C4CC(=NOCCN)CCC43C)C1CCC2=O` (mixture of isomers) [I-ej, (E,Z) 3-(2-Aminoethoxyimino)-6α-hydroxymethyl-7α-hydroxyandrostane-17-one hydrochloride], the IC50 at Na+, K+-ATPase (dog kidney enzyme) amounted to 0.022 µM. Further, the “% of compound metabolized after 60 minutes” value (“% of compound metabolized” below) in the data set on fresh rat hepatocytes was determined as 5%. In the data set on anesthetized guinea-pig (Cavia porcellus, iv, 1.5 h, read-out: ED80 (inotropic potency, dose increasing +dP/dTmax by 80%)), the ED80 turned out to be 0.34 µmol/kg. Also, in the data set on anesthetized guinea-pig (Cavia porcellus, iv, 1.5 h, read-out: EDmax (dose inducing maximum positive inotropic effect)), the ED (max) worked out at 7.55 µmol/kg. Moreover, in the data set with anesthetized guinea-pig (Cavia porcellus, iv, 1.5 h, read-out: Emax % increase in +dP/dTmax), the Emax worked out at 258%. For the same compound, in the data set on anesthetized guinea-pig, the “Lethal dose/ED80 (safety ratio)” value was 50 and the Maximum dose infused is 25.0 µmol/kg. Further, the Dead/treated in the data set on anesthetized guinea-pig (setting [2]) was 3/3.
With `COC1CC2CC(=NOCCN)CCC2(C)C2CCC3(C)C(=O)CCC3C12` (mixture of isomers) [I-ee, (E,Z) 3-(2-Aminoethoxyimino)-7α-methoxyandrostane-17-one hemifumarate], the IC50 at Na+, K+-ATPase amounted to 14 µM. Also, in data set [1], the HR % beats/min result is “+5.1%”, the “SBP - % (fall vs OS rats)” value is listed as 11.0%, the “SBP - mm Hg (fall vs OS rats)” value was 19.0 mm Hg and the HR came to 381 beats/min. Besides, the SBP in data set [1] came to 151.0 mm Hg. For the same compound, the “% of compound metabolized” value with fresh rat hepatocytes is recorded as 22%.
As for `C[C@]12CCC(=NOCCN)CC1[C@@H](NC=O)C[C@@H]1[C@@H]2CC[C@]2(C)C(=O)CC[C@@H]12.O=C(O)/C=C/C(=O)O` (stereo partly drawn) [I-be, (E,Z) 3-(2-Aminoethoxyimino)-6α-formamidoandrostan-17-one fumarate], the IC50 at Na+, K+-ATPase amounted to 0.16 µM. In addition, the “% of compound metabolized” value in the data set with fresh rat hepatocytes came to 16%. Further, in the data set with anesthetized guinea-pig, the “Lethal dose/ED80 (safety ratio)” value was 32.8 and the Maximum dose infused worked out at 50.4 µmol/kg. Moreover, the “% decrease from Emax after 20 min from the end of the infusion” value with anesthetized guinea-pig (duration of the inotropic effect) is 37%. For the same compound, in the data set on anesthetized guinea-pig (maximum increase in contractile force, slow i.v. infusion over 90 minutes), the “Emax % increase in +dP/dTmax” value is 174%. In the data set with anesthetized guinea-pig (setting [2]), the Dead/treated is on record as 1/5; the “ED80 (inotropic potency, dose increasing +dP/dTmax by 80%)” value is 1.99 µmol/kg; the “EDmax (dose inducing maximum positive inotropic effect)” value worked out at 27.4 µmol/kg.

One may read the IC50 as the concentration at which inhibition is half-maximal.
